Reference: a melting point compilation (Tetko et al.)

With `Cc1ccc(Cn2nc(C)c(CCC(=O)O)c2C)cc1` the melting point was 134 to 136 °C.
`O=C(O)c1c[nH]c(=O)c(Br)c1` gave a melting point of 307 to 309 °C.
Compound `NS(=O)(=O)c1ncccn1` has a melting point of 173 to 175 °C.
`O=[N+]([O-])c1cc(C(F)(F)F)ccc1I` showed a melting point of 34 to 36 °C.
For `Nc1cc(-c2ccccc2Br)no1`, the melting point was 74 to 76 °C.
`Cc1cn2c(=O)c(C(=O)O)cnc2s1` gave a melting point of 239 to 241 °C.
Compound `CC(=O)c1ccc(CNC(=O)OC(C)(C)C)nc1C` has a melting point of 72 to 74 °C.
Compound `Nc1ncnc2c(F)cc(Br)cc12` has a melting point of 343 to 345 °C.
`COCCNC(=O)CC#N` showed a melting point of 78 to 80 °C.
In the case of `CC(C)(C)c1cn2nc(Br)sc2n1`, the melting point is reported as 105 to 107 °C.
Compound `CCOC(=O)c1sc2ncc(C#N)cc2c1C` has a melting point of 181 to 183 °C.
Compound `O=C1CCc2c(Cl)cccc21` has a melting point of 84 to 86 °C.
Compound `Nc1ccc2c(c1)CCN2C(=O)c1ccoc1` has a melting point of 173 to 175 °C.
Compound `CCn1cnnc1S` has a melting point of 98 to 100 °C.
With `CC(=O)c1cc(C(=O)C(Cl)(Cl)Cl)n(C)c1` the melting point was 133 to 135 °C.
`Cc1c(C)n(Cc2ccccc2)c2ncnc(N)c12` gave a melting point of 175 to 177 °C.
Compound `COCCNS(=O)(=O)c1ccc(Br)c(C(=O)O)c1` has a melting point of 194 to 197 °C.
`Sc1nnc(-c2cccs2)n1-c1ccccc1` gave a melting point of 269 to 271 °C.
`COc1ccc(-c2[nH]c3ccc(F)cc3c2CCC(=O)O)cc1` showed a melting point of 134 to 138 °C.
Work on `Cc1ccc(C(=O)O)cc1NC(=O)NC(C)(C)C` yielded a melting point of 336 to 338 °C.
Work on `CCn1c(C)nc2cc(C(=O)NN)ccc21` yielded a melting point of 183 to 185 °C.
Work on `Cc1c(C(=O)O)nnn1-c1cccc([N+](=O)[O-])c1` yielded a melting point of 169 to 171 °C.
`N#Cc1ccc(-n2nccc2N)cc1` showed a melting point of 114 to 116 °C.
For `CC(=O)N1CCCc2ccc(S(=O)(=O)Cl)cc21`, the melting point was 93 to 95 °C.
Compound `Nc1ccc(S(=O)(=O)Nc2cccc(C(F)(F)F)c2)cc1N` has a melting point of 143 to 147 °C.
`NC(=O)CCc1ccc(F)c(F)c1` showed a melting point of 99 to 101 °C.
`O=C(O)CCc1ccc(-c2ccccc2)[nH]1` showed a melting point of 197 to 199 °C.
In the case of `Cn1c(S)nnc1-c1ccncc1`, the melting point is reported as 121 to 123 °C.
With `Cc1cccc(C(=O)O)c1NC(=O)c1ccncc1` the melting point was 249 to 251 °C.
With `CC(=O)N1CC(C)CNc2ccccc21` (stereo not given) the melting point was 141 to 143 °C.
For `CC(=O)NC1CCN(C(C)C)CC1`, the melting point was 84 to 86 °C.
For `Cc1nc2cc(F)ccc2cc1C(=O)O`, the melting point was 262 to 264 °C.
`Cc1ccc(C(=O)O)cc1NC(=O)Nc1ccccc1` showed a melting point of 309 to 311 °C.
With `CC(C)C(=O)Nc1cccc(O)c1` the melting point was 179 to 181 °C.
`O=C(O)c1cnc(NC2CC2)s1` showed a melting point of 217 to 219 °C.
`CC1=NN(c2nc(C)cc(C)n2)C(=O)C1` gave a melting point of 109 to 111 °C.
For `O=C(O)Cc1csc(NC(=O)c2cccc(O)c2)n1`, the melting point was 196 to 198 °C.
Work on `CC(C)(C)OC(=O)N1CC(O)CC1C(=O)O` (stereo not given) yielded a melting point of 145 to 147 °C.
For `Cc1nc(S)nc(O)c1CCO`, the melting point was 263 to 265 °C.
In the case of `N#Cc1ccc(F)c(Cl)c1Cl`, the melting point is reported as 65 to 67 °C.
`CC(C)Oc1ccc([N+](=O)[O-])cc1CBr` showed a melting point of 69 to 71 °C.
In the case of `COc1ccccc1C(=O)Nc1ccc(O)cc1`, the melting point is reported as 172 to 174 °C.
With `CC1=CSC(=C(C#N)N=O)N1` the melting point was 180 to 182 °C.
`COc1ccc(C(=O)CCl)cc1F` showed a melting point of 88 to 92 °C.
With `O=C(O)COc1ccc(Br)cc1Cl` the melting point was 146 to 148 °C.
`Nc1cc(Cl)cc2[nH]cnc12` gave a melting point of 89 to 91 °C.
`O=C(O)c1cccc(S(=O)(=O)N2CCc3ccccc32)c1` gave a melting point of 174 to 176 °C.
Compound `Sc1nnnn1C1CCCC1` has a melting point of 123 to 125 °C.
With `Nc1ccc2nc(CN3CCOCC3)[nH]c2c1` the melting point was 160 to 162 °C.
For `NC(=S)c1cccc(C(F)(F)F)c1`, the melting point was 66 to 68 °C.
`Cc1cc(NS(C)(=O)=O)ccc1Br` gave a melting point of 102 to 104 °C.
In the case of `O=C(O)c1cc(O)nc2ccc(S(=O)(=O)N3CCOCC3)cc12`, the melting point is reported as 304 to 306 °C.
`O=C(N/N=C/c1c(O)ccc2ccccc12)c1ccncc1` gave a melting point of 266 to 268 °C.
Work on `COc1cc(C=O)ccc1OCc1c(C)noc1C` yielded a melting point of 111 to 115 °C.
Compound `O=C(O)c1ccc(NS(=O)(=O)c2ccc(F)c(Cl)c2)cc1` has a melting point of 240 to 242 °C.
Work on `O=S(=O)(Cl)c1ccc(Br)c(C(F)(F)F)c1` yielded a melting point of 29 to 31 °C.
`COC(=O)c1cc(Br)cc(S(=O)(=O)Cl)c1` showed a melting point of 59 to 61 °C.
For `Cc1cc(N)n(-c2ccc(OC(F)(F)F)cc2)n1`, the melting point was 118 to 120 °C.
Work on `FC(F)(F)c1ccccc1Nc1nnc(S)s1` yielded a melting point of 197 to 199 °C.
Work on `O=[N+]([O-])c1cccnc1N1CCC(CO)CC1` yielded a melting point of 71 to 73 °C.
Work on `Cc1ccc(-n2c(C)c(C)c3c(N)ncnc32)cc1` yielded a melting point of 202 to 206 °C.
`Nc1nnc(C(F)F)s1` gave a melting point of 174 to 176 °C.
In the case of `CCOC(=O)c1nn(-c2ccccc2)cc1C=O`, the melting point is reported as 99 to 101 °C.
Work on `Cn1nc(C(F)(F)F)c(C(=O)O)c1C(F)(F)F` yielded a melting point of 127 to 129 °C.
In the case of `O=C(O)c1ccc(CN2C(=O)c3ccccc3C2=O)cc1`, the melting point is reported as 258 to 260 °C.
Compound `Cc1cc(CC(=O)O)n[nH]1` has a melting point of 116 to 118 °C.
For `CN(C(=O)c1ccc(N)cc1Cl)C1CCCCC1`, the melting point was 172 to 174 °C.
For `CN(C)S(=O)(=O)c1cccc(CO)c1`, the melting point was 65 to 67 °C.
`O=C(O)c1cccc(N2C(=O)C=CC2=O)c1` showed a melting point of 231 to 233 °C.
For `NNc1cccc(C(F)(F)F)n1`, the melting point was 62 to 64 °C.
Work on `O=S1(=O)CCC(CCBr)C1` (stereo not given) yielded a melting point of 56 to 58 °C.
With `O=C(O)CSCc1nc2scc(-c3cccs3)c2c(=O)[nH]1` the melting point was 148 to 150 °C.
For `C=CCn1c(SCCCCCCCCCCCC)nc2scc(-c3ccccc3)c2c1=O`, the melting point was 84 to 86 °C.
`COc1ccc(C(=O)O)cc1OCc1ccncc1` gave a melting point of 201 to 203 °C.
Compound `N#Cc1ccccc1CN1C(=O)CCC1=O` has a melting point of 122 to 124 °C.
In the case of `COc1ccc2c(c1)C=C(C(=O)O)CO2`, the melting point is reported as 184 to 186 °C.
With `O=C(CCl)NOCc1ccccc1` the melting point was 92 to 94 °C.
Compound `CC(C)(C)c1cccc2c1OCC2=O` has a melting point of 69 to 71 °C.
`O=C(O)C1CC(=O)N(c2cn[nH]c2)C1` (stereo not given) showed a melting point of 259 to 261 °C.
For `NNc1c(F)cc(F)cc1Cl`, the melting point was 87 to 89 °C.
Work on `NNc1ncccc1C(F)(F)F` yielded a melting point of 71 to 73 °C.
With `Cc1c(C(=O)O)sc2nc[nH]c(=O)c12` the melting point was 248 to 252 °C.
`O=[N+]([O-])c1cccc2c1NCCC2` showed a melting point of 69 to 71 °C.
For `Cc1ccc(C(N)=S)c(C)c1`, the melting point was 59 to 63 °C.
Work on `Nc1ncc(-c2ccc(F)cc2)s1` yielded a melting point of 209 to 211 °C.
`CCNC(=S)n1ncc(C(=O)OCC)c1N` showed a melting point of 92 to 96 °C.
`CCOc1ccc(-n2c(C)cc(C(=O)CCl)c2C)cc1` gave a melting point of 118 to 122 °C.
`O=S(=O)(c1ccc(Cl)nc1)N1CCCCC1` showed a melting point of 130 to 132 °C.
Work on `CN(CCC(N)=S)C(=O)OC(C)(C)C` yielded a melting point of 79 to 81 °C.
With `O=C(O)c1cc(Br)sc1Br` the melting point was 179 to 181 °C.
In the case of `Cc1ccnc(NC(=O)C2CCNCC2)c1`, the melting point is reported as 134 to 136 °C.
Work on `CCN1CCN(S(=O)(=O)c2ccc(CCC(=O)O)cc2)CC1` yielded a melting point of 239 to 241 °C.
For `COC(=O)C(N)c1cc(C)c(O)c(C)c1` (stereo not given), the melting point was 147 to 149 °C.
`O=C(Nc1cocn1)OCC(F)(F)F` showed a melting point of 131 to 133 °C.
With `CC(Cl)C(=O)Nc1cccc(I)c1` (stereo not given) the melting point was 94 to 96 °C.
For `Nc1ncc(Cc2ccc(Cl)c(Cl)c2)s1`, the melting point was 83 to 85 °C.
With `O=S(=O)(Cl)c1ccc(Cl)c2ccccc12` the melting point was 90 to 92 °C.
In the case of `NC(=O)NCc1ccncc1`, the melting point is reported as 198 to 200 °C.
In the case of `Cc1cc(N)n(-c2nc3ccccc3o2)n1`, the melting point is reported as 221 to 223 °C.
`O=C(O)CCC(=O)c1ccc(I)cc1` showed a melting point of 175 to 177 °C.
